{
  "source": "patent US20240182431A1",
  "about": "“NEW CONTRAST AGENT FOR USE IN MAGNETIC RESONANCE IMAGING” (Bayer Aktiengesellschaft, priority 2021, published 2024)",
  "test": "Partition coefficient (logP butanol/buffer)",
  "assay_type": "physicochemical",
  "key": {"[1]": {"conditions": "1-butanol / 50 mM Tris-HCl, pH 7.4, room temperature"}},
  "data": [
    {"smiles": "CCOCCOCCOc1ccc(CCC[C@@H](C(=O)O)N2CCN(C(CO)C(=O)[O-])CCN(C(CO)C(=O)[O-])CCN(C(CO)C(=O)[O-])CC2)cc1.[Gd+3]", "note": "(mixture of isomers) [Example 21, gadolinium-2,2′,2″-{10-[(1S)-1-carboxy-4-{4-[2-(2-ethoxyethoxy)ethoxy]phenyl}butyl]-1,4,7,10-tetraazacyclododecane-1,4,7-triyl}tris(3-hydroxypropanoate)]", "values": [
      {"measurement": "Log P (butanol/buffer)", "setting": "[1]", "value": "−1.03"}
    ]},
    {"smiles": "O=C([O-])CN1CCN(C(Cc2ccc(OCC(F)(F)C(F)F)cc2)C(=O)O)CCN(CC(=O)[O-])CCN([C@@H](CO)C(=O)[O-])CC1.[Gd+3]", "note": "(mixture of isomers) [Example 33, gadolinium (2S)-2-[4,10-bis(carboxylatomethyl)-7-{1-carboxy-2-[4-(2,2,3,3-tetrafluoropropoxy)phenyl]ethyl}-1,4,7,10-tetraazacyclododecan-1-yl]-3-hydroxypropanoate]", "values": [
      {"measurement": "Log P (butanol/buffer)", "setting": "[1]", "value": "−0.55"}
    ]},
    {"smiles": "CCOCCOCCOc1ccc(CCC[C@@H](C(=O)O)N2CCN(C(CCO)C(=O)[O-])CCN(C(CCO)C(=O)[O-])CCN(C(CCO)C(=O)[O-])CC2)cc1.[Gd+3]", "note": "(mixture of isomers) [Example 36, gadolinium-2,2′-{4-[(1S)-1-carboxy-4-{4-[2-(2-ethoxyethoxy)ethoxy]phenyl}butyl]-10-[1-carboxylato-3-hydroxypropyl]-1,4,7,10-tetraazacyclododecane-1,7-diyl}bis(4-hydroxybutanoate)]", "values": [
      {"measurement": "Log P (butanol/buffer)", "setting": "pH 7.4", "value": "−1.08"}
    ]},
    {"smiles": "CCOCCOCCOc1ccc(CC(C(=O)O)N2CCN(CC(=O)[O-])CCN(C(C)C(=O)[O-])CCN(CC(=O)[O-])CC2)cc1.[Gd+3]", "note": "(single isomer, unassigned) [Example 5, gadolinium 2-[7-(1-carboxy-2-{4-[2-(2-ethoxyethoxy)ethoxy]phenyl}ethyl)-4,10-bis(carboxylatomethyl)-1,4,7,10-tetraazacyclododecan-1-yl]propanoate]", "values": [
      {"measurement": "Log P (butanol/buffer)", "setting": "[1]", "value": "−1.52"}
    ]},
    {"smiles": "CCOCCOCCOc1ccc(CC(C(=O)O)N2CCN(CC(=O)[O-])CCN(C(C)C(=O)[O-])CCN(CC(=O)[O-])CC2)cc1.[Gd+3]", "note": "(single isomer, unassigned) [Example 6, gadolinium 2-[7-(1-carboxy-2-{4-[2-(2-ethoxyethoxy)ethoxy]phenyl}ethyl)-4,10-bis(carboxylatomethyl)-1,4,7,10-tetraazacyclododecan-1-yl]propanoate]", "values": [
      {"measurement": "Log P (butanol/buffer)", "setting": "[1]", "value": "−1.44"}
    ]},
    {"smiles": "CCOCCOc1ccc(CC(C(=O)O)N2CCN(CC(=O)[O-])CCN(C(CC)C(=O)[O-])CCN(CC(=O)[O-])CC2)cc1.[Gd+3]", "note": "(single isomer, unassigned) [Example 7, gadolinium 2-[7-{1-carboxy-2-[4-(2-ethoxyethoxy)phenyl]ethyl}-4,10-bis(carboxylatomethyl)-1,4,7,10-tetraazacyclododecan-1-yl]butanoate]", "values": [
      {"measurement": "Log P (butanol/buffer)", "setting": "[1]", "value": "−1.09"}
    ]},
    {"smiles": "CCOCCOc1ccc(CC(C(=O)O)N2CCN(CC(=O)[O-])CCN(C(CC)C(=O)[O-])CCN(CC(=O)[O-])CC2)cc1.[Gd+3]", "note": "(single isomer, unassigned) [Example 8, gadolinium 2-[7-{1-carboxy-2-[4-(2-ethoxyethoxy)phenyl]ethyl}-4,10-bis(carboxylatomethyl)-1,4,7,10-tetraazacyclododecan-1-yl]butanoate]", "values": [
      {"measurement": "Log P (butanol/buffer)", "setting": "[1]", "value": "−1.04"}
    ]},
    {"smiles": "CCOCCOCCOc1ccc(CC(C(=O)O)N2CCN(CC(=O)[O-])CCN(CC(=O)[O-])CCN(CC(=O)[O-])CC2)cc1.[Gd+3]", "note": "(stereo not drawn) [Example 2, gadolinium 2,2′,2″-{10-[1-carboxy-2-{4-[2-(2-ethoxyethoxy)ethoxy]phenyl}ethyl]-1,4,7,10-tetraazacyclododecane-1,4,7-triyl}triacetate]", "values": [
      {"measurement": "Log P (butanol/buffer)", "setting": "[1]", "value": "−1.63"}
    ]},
    {"smiles": "CCOCCOCCOc1ccc(C[C@@H](C(=O)O)N2CCN(CC(=O)[O-])CCN(CC(=O)[O-])CCN(CC(=O)[O-])CC2)cc1.[Gd+3]", "note": "[Example 3, gadolinium 2,2′,2″-{10-[(1S)-1-carboxy-2-{4-[2-(2-ethoxyethoxy)ethoxy]phenyl}ethyl]-1,4,7,10-tetraazacyclododecane-1,4,7-triyl}triacetate]", "values": [
      {"measurement": "Log P (butanol/buffer)", "setting": "[1]", "value": "−1.61"}
    ]},
    {"smiles": "CCOCCOCCOc1ccc(C[C@H](C(=O)O)N2CCN(CC(=O)[O-])CCN(CC(=O)[O-])CCN(CC(=O)[O-])CC2)cc1.[Gd+3]", "note": "[Example 4, gadolinium 2,2′,2″-{10-[(1R)-1-carboxy-2-{4-[2-(2-ethoxyethoxy)ethoxy]phenyl}ethyl]-1,4,7,10-tetraazacyclododecane-1,4,7-triyl}triacetate]", "values": [
      {"measurement": "Log P (butanol/buffer)", "setting": "[1]", "value": "−1.61"}
    ]},
    {"smiles": "CCCCOc1ccc(CCCC[C@@H](C(=O)O)N2CCN([C@@H](CO)C(=O)[O-])CCN([C@@H](CO)C(=O)[O-])CCN([C@@H](CO)C(=O)[O-])CC2)cc1.[Gd+3]", "note": "[Example 9, gadolinium (2S,2′S,2″S)-2,2′,2″-{10-[(1S)-5-(4-butoxyphenyl)-1-carboxypentyl]-1,4,7,10-tetraazacyclododecane-1,4,7-triyl}tris(3-hydroxypropanoate)]", "values": [
      {"measurement": "Log P (butanol/buffer)", "setting": "[1]", "value": 0.26}
    ]},
    {"smiles": "CCOCCOCCOCCOc1ccc(CC(C(=O)O)N2CCN(CC(=O)[O-])CCN(CC(=O)[O-])CCN(CC(=O)[O-])CC2)cc1.[Gd+3]", "note": "(stereo not drawn) [Example 10, gadolinium 2,2′,2″-{10-[1-carboxy-2-(4-{2-[2-(2-ethoxyethoxy)ethoxy]ethoxy}phenyl)ethyl]-1,4,7,10-tetraazacyclododecane-1,4,7-triyl}triacetate]", "values": [
      {"measurement": "Log P (butanol/buffer)", "setting": "[1]", "value": "−1.70"}
    ]},
    {"smiles": "CCOCCOCCOCCOc1ccc(C[C@@H](C(=O)O)N2CCN(CC(=O)[O-])CCN(CC(=O)[O-])CCN(CC(=O)[O-])CC2)cc1.[Gd+3]", "note": "[Example 11, gadolinium 2,2′,2″-{10-[(1S)-1-carboxy-2-(4-{2-[2-(2-ethoxyethoxy)ethoxy]ethoxy}phenyl)ethyl]-1,4,7,10-tetraazacyclododecane-1,4,7-triyl}triacetate]", "values": [
      {"measurement": "Log P (butanol/buffer)", "setting": "[1]", "value": "−1.68"}
    ]},
    {"smiles": "CCOCCOCCOCCOc1ccc(C[C@H](C(=O)O)N2CCN(CC(=O)[O-])CCN(CC(=O)[O-])CCN(CC(=O)[O-])CC2)cc1.[Gd+3]", "note": "[Example 12, gadolinium 2,2′,2″-{10-[(1R)-1-carboxy-2-(4-{2-[2-(2-ethoxyethoxy)ethoxy]ethoxy}phenyl)ethyl]-1,4,7,10-tetraazacyclododecane-1,4,7-triyl}triacetate]", "values": [
      {"measurement": "Log P (butanol/buffer)", "setting": "[1]", "value": "−1.68"}
    ]},
    {"smiles": "CCOCCOCCOCCOc1ccc(CC(C(=O)O)N2CCN(CC(=O)[O-])CCN(C(COC)C(=O)[O-])CCN(CC(=O)[O-])CC2)cc1.[Gd+3]", "note": "(stereo not drawn) [Example 13, gadolinium 2-{7-[1-carboxy-2-(4-{2-[2-(2-ethoxyethoxy)ethoxy]ethoxy}phenyl)ethyl]-4,10-bis(carboxylatomethyl)-1,4,7,10-tetraazacyclododecan-1-yl}-3-methoxypropanoate]", "values": [
      {"measurement": "Log P (butanol/buffer)", "setting": "[1]", "value": "−1.53"}
    ]},
    {"smiles": "CCCCOc1ccc(CC(C(=O)O)N2CCN(CC(=O)[O-])CCN(CC(=O)[O-])CCN(CC(=O)[O-])CC2)cc1.[Gd+3]", "note": "(stereo not drawn) [Example 14, gadolinium 2,2′,2″-{10-[2-(4-butoxyphenyl)-1-carboxyethyl]-1,4,7,10-tetraazacyclododecane-1,4,7-triyl}triacetate]", "values": [
      {"measurement": "Log P (butanol/buffer)", "setting": "[1]", "value": "−0.38"}
    ]},
    {"smiles": "CCOCCOCCOc1ccc(CC(C(=O)O)N2CCN(CC(=O)[O-])CCN(CC(=O)[O-])CCN(CC(=O)[O-])CC2)cn1.[Gd+3]", "note": "(stereo not drawn) [Example 16, gadolinium 2,2′,2″-{10-[1-carboxy-2-{6-[2-(2-ethoxyethoxy)ethoxy]pyridin-3-yl}ethyl]-1,4,7,10-tetraazacyclododecane-1,4,7-triyl}triacetate]", "values": [
      {"measurement": "Log P (butanol/buffer)", "setting": "[1]", "value": "−1.81"}
    ]},
    {"smiles": "CCOCCOCCOc1ccc(CCC[C@H](C(=O)O)N2CCN([C@@H](CO)C(=O)[O-])CCN([C@@H](CO)C(=O)[O-])CCN([C@@H](CO)C(=O)[O-])CC2)cc1.[Gd+3]", "note": "[Example 18, gadolinium (2S,2′S,2″S)-2,2′,2″-{10-[(1R)-1-carboxy-4-{4-[2-(2-ethoxyethoxy)ethoxy]phenyl}butyl]-1,4,7,10-tetraazacyclododecane-1,4,7-triyl}tris(3-hydroxypropanoate)]", "values": [
      {"measurement": "Log P (butanol/buffer)", "setting": "[1]", "value": "−1.11"}
    ]},
    {"smiles": "CCOCCOCCOc1ccc(CCC[C@H](C(=O)O)N2CCN([C@H](CO)C(=O)[O-])CCN([C@H](CO)C(=O)[O-])CCN([C@H](CO)C(=O)[O-])CC2)cc1.[Gd+3]", "note": "[Example 19, gadolinium (2R,2R,2″R)-2,2′,2″-{10-[(1R)-1-carboxy-4-{4-[2-(2-ethoxyethoxy)ethoxy]phenyl}butyl]-1,4,7,10-tetraazacyclododecane-1,4,7-triyl}tris(3-hydroxypropanoate)]", "values": [
      {"measurement": "Log P (butanol/buffer)", "setting": "[1]", "value": "−0.95"}
    ]},
    {"smiles": "CCOCCOCCOc1ccc(CCC[C@@H](C(=O)O)N2CCN([C@H](CO)C(=O)[O-])CCN([C@H](CO)C(=O)[O-])CCN([C@H](CO)C(=O)[O-])CC2)cc1.[Gd+3]", "note": "[Example 20, gadolinium (2R,2′R,2″R)-2,2′,2″-{10-[(1S)-1-carboxy-4-{4-[2-(2-ethoxyethoxy)ethoxy]phenyl}butyl]-1,4,7,10-tetraazacyclododecane-1,4,7-triyl}tris(3-hydroxypropanoate)]", "values": [
      {"measurement": "Log P (butanol/buffer)", "setting": "[1]", "value": "−1.11"}
    ]},
    {"smiles": "CCOCCOCCOc1ccc(CC(C(=O)O)N2CCN(CC(=O)[O-])CCN(CC(=O)[O-])CCN(CC(=O)[O-])CC2)nc1.[Gd+3]", "note": "(stereo not drawn) [Example 23, gadolinium 2,2′,2″-{10-[1-carboxy-2-{5-[2-(2-ethoxyethoxy)ethoxy]pyridin-2-yl}ethyl]-1,4,7,10-tetraazacyclododecane-1,4,7-triyl}triacetate]", "values": [
      {"measurement": "Log P (butanol/buffer)", "setting": "[1]", "value": "−1.94"}
    ]},
    {"smiles": "CCCOc1ccc(CCC(C(=O)O)N2CCN(CC(=O)[O-])CCN(CC(=O)[O-])CCN(CC(=O)[O-])CC2)cc1.[Gd+3]", "note": "(stereo not drawn) [Example 24, gadolinium 2,2′,2″-{10-[1-carboxy-3-(4-propoxyphenyl)propyl]-1,4,7,10-tetraazacyclododecane-1,4,7-triyl}triacetate]", "values": [
      {"measurement": "Log P (butanol/buffer)", "setting": "[1]", "value": "−0.71"}
    ]},
    {"smiles": "CCOCCOCCOc1ccc(CCC[C@@H](C(=O)O)N2CCN(CC(=O)[O-])CCN(CC(=O)[O-])CCN(CC(=O)[O-])CC2)cc1.[Gd+3]", "note": "[Example 26, gadolinium 2,2′,2″-{10-[(1S)-1-carboxy-4-{4-[2-(2-ethoxyethoxy)ethoxy]phenyl}butyl]-1,4,7,10-tetraazacyclododecane-1,4,7-triyl}triacetate]", "values": [
      {"measurement": "Log P (butanol/buffer)", "setting": "[1]", "value": "−1.01"}
    ]},
    {"smiles": "CCOc1ccc(CCCC[C@@H](C(=O)O)N2CCN(CC(=O)[O-])CCN(CC(=O)[O-])CCN(CC(=O)[O-])CC2)cc1.[Gd+3]", "note": "[Example 27, gadolinium 2,2′,2″-{10-[(1S)-1-carboxy-5-(4-ethoxyphenyl)pentyl]-1,4,7,10-tetraazacyclo-dodecane-1,4,7-triyl}triacetate]", "values": [
      {"measurement": "Log P (butanol/buffer)", "setting": "[1]", "value": "−0.41"}
    ]}
  ]
}
